We go through eight molecules from article PMC12114840, “Exploring the Anticancer Properties of 1,2,3-Triazole-Substituted Andrographolide Derivatives” (Pharmaceuticals, 2025).

The subject of assay [1] is CCD-18Co cells (non-tumorigenic colon). The assay is described as follows: Sulforhodamine B (SRB) antiproliferative assay, CCD-18Co. Format: cell-based. The note with it: Homo sapiens, CCD-18Co non-tumorigenic, 48 h, mean ± SEM of four to six independent experiments. The method, then: (§1) The antiproliferative properties of andrographolide and all prepared derivatives (2–26) were evaluated against a panel of different cancer cell lines, including human pancreatic ductal adenocarcinoma (PANC-1), colorectal adenocarcinoma (HCT116), melanoma (A375), breast adenocarcinoma (MCF-7) and a non-tumorigenic colon (CCD-18Co) cell line using the sulforhodamine B assay.
(§2) Human breast adenocarcinoma MCF-7, pancreatic ductal adenocarcinoma PANC-1, melanoma A375, and non-tumorigenic colon CCD-18Co cell lines were purchased from ATCC (Rockville, MD, USA). Human colorectal adenocarcinoma HCT116 cells were kindly provided by B. Vogelstein (The Johns Hopkins Kimmel Cancer Center, Baltimore, MD, USA). Tumor cells were routinely cultured in RPMI-1640 medium with UltraGlutamine from Biowest (VWR, Carnaxide, Portugal) supplemented with 10% fetal bovine serum (FBS) from Biowest (VWR, Carnaxide, Portugal), except for the PANC-1 cells, which were grown in DMEM (4.5 g/L glucose) with stable L-glutamine and sodium pyruvate and supplemented with 10% FBS. The non-tumorigenic CCD-18Co cells were cultured in EMEM (Lonza, VWR, Carnaxide, Portugal), supplemented with 10% FBS. All cells were incubated at 37 °C in a humidified atmosphere of 5% CO2. Routine mycoplasma testing was performed using the MycoAlert™ PLUS mycoplasma detection kit (Lonza).
(§3) For the evaluation of the compound effect on cell proliferation, human cell lines were seeded in 96-well plates at a density of 5.0 × 10^3 (HCT116, MCF-7, PANC-1, A375, and CCD-18Co) cells per well, for 24 h. Cells were then treated with serial dilutions of the compound (ranging from 0.63 to 30 µM), for an additional 48 h incubation period. The growth inhibitory effects were assessed by SRB assay, as described in [58], and the half-maximal inhibitory concentration (IC50 values) were determined for each cell line using the GraphPad Prism software version 7.0 (La Jolla, CA, USA). Culture medium containing a maximum of 0.05% dimethyl sulfoxide (DMSO) was used as negative control.
For orientation: In SRB staining, fixed cells bind dye roughly in proportion to their protein.

Assay [2] relates to MCF-7 cells (breast adenocarcinoma). The assay can be described thus: Sulforhodamine B (SRB) antiproliferative assay, MCF-7. Format: cell-based. The note with it: Homo sapiens, MCF7, MCF-7, 48 h, mean ± SEM of four to six independent experiments. The method, then:
as §1, §2, §3

For assay [3], the system named is A375 cells (melanoma). The assay is described as follows: Sulforhodamine B (SRB) antiproliferative assay, A375. Format: cell-based. The note with it: Homo sapiens, A-375, A375, 48 h, mean ± SEM of four to six independent experiments. As for the experimental part: as §1, §2, §3
Assay [4] concerns PANC-1 cells (pancreatic ductal adenocarcinoma). The assay can be described thus: Sulforhodamine B (SRB) antiproliferative assay, PANC-1. Format: cell-based, human. The following applies: Homo sapiens; PANC-1, 48 h, SRB; mean ± SEM of four to six independent experiments. As for the experimental part: as §1, §2, §3
Assay [5] has as its system HCT116 cells (colorectal adenocarcinoma). The assay is described as follows: Sulforhodamine B (SRB) antiproliferative assay, HCT116. Format: cell-based. The note with it: Homo sapiens, HCT-116, HCT116, 48 h, mean ± SEM of four to six independent experiments. As for the experimental part: as §1, §2, §3

Each structure is given as a SMILES string.

The IC50 is the concentration that inhibits the measured activity by half. Low values mean greater potency, high ones weaker potency.

As for `C=C1CC[C@@H]2[C@](C)(COC(C)=O)[C@H](OC(C)=O)CC[C@@]2(C)[C@@H]1C[C@H](C1=CCOC1=O)n1cc(-c2ccc(-c3ccccc3)cc2)nn1` [Compound 20], the IC50 was determined as 3.5 ± 0.3 µM in assay [1]; 28 ± 2 µM in assay [2]; 3.3 ± 1.3 µM in assay [3]; 3 ± 1.1 µM in assay [4]; 1.4 ± 0.3 µM in assay [5].
With `C=C1CC[C@@H]2[C@](C)(COC(C)=O)[C@H](OC(C)=O)CC[C@@]2(C)[C@@H]1C[C@@H](C1=CCOC1=O)n1cc(-c2ccc(-c3ccccc3)cc2)nn1` [Compound 21], the half-inhibitory concentration (IC50) in assay [1] stood at 4.4 ± 0.8 µM; in assay [2] it was 10.4 ± 0.7 µM; in assay [3], 1.3 ± 0.3 µM; in assay [4], 3.5 ± 0.3 µM; in assay [5], 1.2 ± 0.2 µM.
On to `C=C1CC[C@@H]2[C@](C)(COC(C)=O)[C@H](OC(C)=O)CC[C@@]2(C)[C@@H]1C[C@H](C1=CCOC1=O)n1cc(-c2ccncc2)nn1` [Compound 22, (12R)-4-(4-pyridine)-1,2,3-triazole-3,19-diacetoxy-14-deoxy-andrographolide], for which the half-inhibitory concentration (IC50) in assay [1] was 3.2 ± 0.9 µM; in assay [2], 5.9 ± 0.1 µM; in assay [3], 1.3 ± 0.2 µM; in assay [4] it was 5 ± 0.4 µM; in assay [5] it was 1.6 ± 0.3 µM.
For the molecule `C=C1CC[C@@H]2[C@](C)(COC(C)=O)[C@H](OC(C)=O)CC[C@@]2(C)[C@@H]1C[C@@H](C1=CCOC1=O)n1cc(-c2ccncc2)nn1` [Compound 23, (12S)-4-(4-pyridine)-1,2,3-triazole-3,19-diacetoxy-14-deoxy-andrographolide], the concentration for half-maximal inhibition (IC50) is 4.1 ± 0.9 µM in assay [1]; 11 ± 0.2 µM in assay [2]; 3.3 ± 1 µM in assay [3]; 6.3 ± 1.9 µM in assay [4]; 2.8 ± 0.8 µM in assay [5].
Regarding `C=C1CC[C@@H]2[C@](C)(COC(C)=O)[C@H](OC(C)=O)CC[C@@]2(C)[C@@H]1C[C@H](C1=CCOC1=O)n1cc(-c2ccccn2)nn1` [Compound 24, (12R)-4-pyridine-1,2,3-triazole-3,19-diacetoxy-14-deoxy-andrographolide], the IC50 amounted to 4.6 ± 1.4 µM in assay [1]; 7 ± 0.2 µM in assay [2]; 1.3 ± 0.3 µM in assay [3]; 1.8 ± 0.1 µM in assay [4]; 6.7 ± 3.2 µM in assay [5].
`C=C1CC[C@@H]2[C@](C)(COC(C)=O)[C@H](OC(C)=O)CC[C@@]2(C)[C@@H]1C[C@H](C1=CCOC1=O)n1cc(-c2ccsc2)nn1` [Compound 25, (12R)-4-(3-thiophene)-1,2,3-triazole-3,19-diacetoxy-14-deoxy-andrographolide]: the IC50 was determined as 8.9 ± 0.2 µM in assay [1]; 6.9 ± 0.1 µM in assay [2]; 1.8 ± 0.3 µM in assay [3]; 4.5 ± 2 µM in assay [4]; 1.7 ± 0.3 µM in assay [5].
For `C=C1CC[C@@H]2[C@](C)(COC(C)=O)[C@H](OC(C)=O)CC[C@@]2(C)[C@@H]1C[C@@H](C1=CCOC1=O)n1cc(-c2ccsc2)nn1` [Compound 26, (12S)-4-(3-thiophene)-1,2,3-triazole-3,19-diacetoxy-14-deoxy-andrographolide] the same measures were 6.2 ± 1.4 µM, 6.1 ± 0.2 µM, 1.4 ± 0.1 µM, 4.3 ± 1.4 µM and 1.3 ± 0.1 µM.
In the same order, the values of `COc1cc([C@@H]2c3cc4c(cc3[C@@H](O[C@@H]3O[C@@H]5CO[C@@H](C)O[C@H]5[C@H](O)[C@H]3O)[C@H]3COC(=O)[C@H]23)OCO4)cc(OC)c1O` [Etoposide, reference compound] are 0.76 ± 0.01 µM, 1.8 ± 0.03 µM, 0.82 ± 0.07 µM, 2.8 ± 0.05 µM and 0.65 ± 0.09 µM.
